Assays:
Type in all cases: in vivo
[1] = tested on: windgrass (Apera spica-venti); experiment: Test B postemergence plant response; conditions: Postemergence
Summary of the method: (§1)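 Visual ratings from 0 (no effect) to 100 (complete control), made against controls 13–15 days after treatment, kept in a greenhouse. Compounds were applied postemergence to potted plants at the 1- to 4-leaf stage (2–18 cm).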

[2] = tested on: chickweed (Stellaria media); experiment: Test B postemergence plant response; conditions: Postemergence
Summary of the method: as §1

[3] = tested on: canarygrass (Phalaris minor); experiment: Test B postemergence plant response; conditions: Postemergence
Summary of the method: as §1

[4] = tested on: winter barley (Hordeum vulgare); experiment: Test B postemergence plant response; conditions: for Barley plant response rating (0 to 100 scale): 62 g ai/ha, postemergence, 0 is no effect, 100 is complete control; for Plant response rating, Barley: Postemergence
Summary of the method: as §1

[5] = tested on: wheat (Triticum aestivum); experiment: Test A pre-/postemergence plant response; conditions: for Wheat plant response rating: visual injury, 0 to 100 scale (0 no effect, 100 complete control), approx. ten days
Summary of the method: (§2)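 Each species was treated preemergence via directed soil spray and postemergence at the one- to two-leaf stage, with compounds formulated in a non-phytotoxic solvent plus surfactant. Visual injury relative to untreated controls was rated after about ten days on a 0–100 scale.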

corn (Zea mays) = experiment: Test A pre-/postemergence plant response; conditions: for Corn plant response rating: visual injury, 0 to 100 scale (0 no effect, 100 complete control), approx. ten days
Summary of the method: as §2

[6] = tested on: giant foxtail (Setaria faberii); experiment: Test A pre-/postemergence plant response; conditions: for Foxtail, Giant plant response rating: visual injury, 0 to 100 scale (0 no effect, 100 complete control), approx. ten days
Summary of the method: as §2

[7] = tested on: barnyardgrass (Echinochloa crus-galli); experiment: Test A pre-/postemergence plant response; conditions: for Barnyardgrass plant response rating: visual injury, 0 to 100 scale (0 no effect, 100 complete control), approx. ten days
Summary of the method: as §2

[8] = tested on: large crabgrass (Digitaria sanguinalis); experiment: Test A pre-/postemergence plant response; conditions: for Crabgrass, Large plant response rating: visual injury, 0 to 100 scale (0 no effect, 100 complete control), approx. ten days
Summary of the method: as §2

[9] = tested on: pigweed (Amaranthus retroflexus); experiment: Test A pre-/postemergence plant response; conditions: for Pigweed plant response rating: visual injury, 0 to 100 scale (0 no effect, 100 complete control), approx. ten days
Summary of the method: as §2

[10] = tested on: velvetleaf (Abutilon theophrasti); experiment: Test A pre-/postemergence plant response; conditions: for Velvetleaf plant response rating: visual injury, 0 to 100 scale (0 no effect, 100 complete control), approx. ten days
Summary of the method: as §2

[11] = tested on: morningglory (Ipomoea spp.); experiment: Test A pre-/postemergence plant response; conditions: for Morningglory plant response rating: visual injury, 0 to 100 scale (0 no effect, 100 complete control), approx. ten days
Summary of the method: as §2

[12] = 31 g ai/ha, 0 to 100 scale (0 no effect, 100 complete control)
[13] = 125 g ai/ha, scale 0 to 100 (0 no effect, 100 complete control)
[14] = 250 g ai/ha, scale 0 to 100 (0 no effect, 100 complete control), 13 to 15 days
[15] = Postemergence, 125 g ai/ha, 0 to 100 scale where 0 is no effect and 100 is complete control
[16] = Preemergence, 125 g ai/ha, 0 to 100 scale, 0 = no effect, 100 = complete control
[17] = Preemergence, 500 g ai/ha, 0 to 100 scale, 0 = no effect, 100 = complete control

## O=C1CCCC(O)=C1C(=O)c1cnc(-c2cccs2)n(C2CCCCC2)c1=O [Compound 189]
[1]; [12]
  Plant response rating, Windgrass: 25
[1]; [13]
  Plant response rating, Windgrass: 60
[1]; [14]
  Plant response rating, Windgrass: 80
[2]; [12]
  Plant response rating, Chickweed: 98
[2]; [13]
  Plant response rating, Chickweed: 100
[2]; [14]
  Plant response rating, Chickweed: 100
[3]; [12]
  Plant response rating, Canarygrass: 0
[3]; [13]
  Plant response rating, Canarygrass: 5
[3]; [14]
  Plant response rating, Canarygrass: 10
[4]; 13 to 15 days
  Barley plant response rating (0 to 100 scale): 5
[4]; [12]
  Plant response rating, Barley: 0
[4]; [13]
  Plant response rating, Barley: 15
[4]; [14]
  Plant response rating, Barley: 40
[5]; [15]
  Plant response rating, Wheat: 0
[5]; Postemergence, 500 g ai/ha
  Wheat plant response rating: 0
[5]; [16]
  Plant response rating, Wheat: 0
[5]; [17]
  Plant response rating, Wheat: 0
Corn (Zea mays); [15]
  Plant response rating, Corn: 10
Corn (Zea mays); Postemergence, 500 g ai/ha
  Corn plant response rating: 40
Corn (Zea mays); [16]
  Plant response rating, Corn: 0
Corn (Zea mays); [17]
  Plant response rating, Corn: 0
[6]; [15]
  Plant response rating, Foxtail, Giant: 80
[6]; Postemergence, 500 g ai/ha
  Foxtail, Giant plant response rating: 90
[6]; [16]
  Plant response rating, Foxtail, Giant: 30
[6]; [17]
  Plant response rating, Foxtail, Giant: 60
[7]; [15]
  Plant response rating, Barnyardgrass: 90
[7]; Postemergence, 500 g ai/ha
  Barnyardgrass plant response rating: 90
[7]; [16]
  Plant response rating, Barnyardgrass: 20
[7]; [17]
  Plant response rating, Barnyardgrass: 90
[8]; [15]
  Plant response rating, Crabgrass, Large: 90
[8]; Postemergence, 500 g ai/ha
  Crabgrass, Large plant response rating: 90
[8]; [16]
  Plant response rating, Crabgrass, Large: 30
[8]; [17]
  Plant response rating, Crabgrass, Large: 80
[9]; [15]
  Plant response rating, Pigweed: 100
[9]; Postemergence, 500 g ai/ha
  Pigweed plant response rating: 100
[9]; [16]
  Plant response rating, Pigweed: 70
[9]; [17]
  Plant response rating, Pigweed: 100
[10]; [15]
  Plant response rating, Velvetleaf: 100
[10]; Postemergence, 500 g ai/ha
  Velvetleaf plant response rating: 100
[10]; [16]
  Plant response rating, Velvetleaf: 70
[10]; [17]
  Plant response rating, Velvetleaf: 100
[11]; [15]
  Plant response rating, Morningglory: 100
[11]; Postemergence, 500 g ai/ha
  Morningglory plant response rating: 100
[11]; [17]
  Plant response rating, Morningglory: 80

## CCCn1c(-c2cccc(Cl)c2)ncc(C(=O)C2=C(O)CCCC2=O)c1=O [Compound 190]
[1]; [12]
  Plant response rating, Windgrass: 15
[1]; [13]
  Plant response rating, Windgrass: 65
[1]; [14]
  Plant response rating, Windgrass: 65
[2]; [13]
  Plant response rating, Chickweed: 100
[2]; [14]
  Plant response rating, Chickweed: 100
[3]; [12]
  Plant response rating, Canarygrass: 0
[3]; [13]
  Plant response rating, Canarygrass: 25
[3]; [14]
  Plant response rating, Canarygrass: 55
[4]; 13 to 15 days
  Barley plant response rating (0 to 100 scale): 5
[4]; [12]
  Plant response rating, Barley: 0
[4]; [13]
  Plant response rating, Barley: 40
[4]; [14]
  Plant response rating, Barley: 70
[5]; [15]
  Plant response rating, Wheat: 0
[5]; Postemergence, 500 g ai/ha
  Wheat plant response rating: 0
[5]; [16]
  Plant response rating, Wheat: 0
[5]; [17]
  Plant response rating, Wheat: 0
Corn (Zea mays); [15]
  Plant response rating, Corn: 0
Corn (Zea mays); Postemergence, 500 g ai/ha
  Corn plant response rating: 0
Corn (Zea mays); [16]
  Plant response rating, Corn: 0
Corn (Zea mays); [17]
  Plant response rating, Corn: 0
[6]; [15]
  Plant response rating, Foxtail, Giant: 80
[6]; Postemergence, 500 g ai/ha
  Foxtail, Giant plant response rating: 90
[6]; [16]
  Plant response rating, Foxtail, Giant: 60
[6]; [17]
  Plant response rating, Foxtail, Giant: 90
[7]; [15]
  Plant response rating, Barnyardgrass: 90
[7]; Postemergence, 500 g ai/ha
  Barnyardgrass plant response rating: 100
[7]; [16]
  Plant response rating, Barnyardgrass: 10
[7]; [17]
  Plant response rating, Barnyardgrass: 100
[8]; [15]
  Plant response rating, Crabgrass, Large: 90
[8]; Postemergence, 500 g ai/ha
  Crabgrass, Large plant response rating: 90
[8]; [16]
  Plant response rating, Crabgrass, Large: 60
[8]; [17]
  Plant response rating, Crabgrass, Large: 90
[9]; [15]
  Plant response rating, Pigweed: 100
[9]; Postemergence, 500 g ai/ha
  Pigweed plant response rating: 100
[9]; [16]
  Plant response rating, Pigweed: 70
[9]; [17]
  Plant response rating, Pigweed: 100
[10]; [15]
  Plant response rating, Velvetleaf: 100
[10]; Postemergence, 500 g ai/ha
  Velvetleaf plant response rating: 100
[10]; [16]
  Plant response rating, Velvetleaf: 70
[10]; [17]
  Plant response rating, Velvetleaf: 100
[11]; [15]
  Plant response rating, Morningglory: 100
[11]; Postemergence, 500 g ai/ha
  Morningglory plant response rating: 100
[11]; [17]
  Plant response rating, Morningglory: 70

From US8952024B2, “Herbicidal pyrimidone derivatives” (E I du Pont de Nemours and Company, priority 2009, dated 2015)
